Earlier results, collected in patent publication US7282218B2, “pH sensitive polymer for inhibiting transformation in drugs” (Council of Scientific and Industrial Research, priority 2003, dated 2007).

Legend:
[1] = humans
[2] = amorphous vs crystalline

| bioavailability [1] | solubility of amorphous form relative to the crystalline form [2] [times] | SMILES |
| --- | --- | --- |
| 32-50% |  | CO/N=C(\C(=O)N[C@@H]1C(=O)N2C(C(=O)OC(C)OC(C)=O)=C(COC(N)=O)CS[C@H]12)c1ccco1 (some centres unmarked) [Cefuroxime axetil] |
|  | 10 | CO[C@@H]1[C@@H](OC(N)=O)[C@@H](O)[C@H](Oc2ccc3c(O)c(NC(=O)c4ccc(O)c(CC=C(C)C)c4)c(=O)oc3c2C)OC1(C)C [novobiocin] |
